Among the data in paper PMC5994430, “Mitochondrial Delivery of Phenol Substructure Triggers Mitochondrial Depolarization and Apoptosis of Cancer Cells” (Frontiers in Pharmacology, 2018) are IC50 values, retold here.

Assay in all cases: Cell viability (neutral red), IC50
In assay [1] the test system is CCD-18Co cells. The assay is classed as cell-based. The note with it: Homo sapiens, CCD-18Co colon-derived normal fibroblasts, CompuSyn. The source says:
(§1) Human colon cancer HT29 cells, colon-derived normal fibroblast CCD-18Co cells, lung cancer A549 cells, normal human bronchial epithelial (immortalized with adenovirus 12-SV40 virus hybrid Ad12SV40) BEAS-2B cells, breast cancer MDA-MB-231 cells, normal breast epithelial MCF10A cells, human osteosarcoma U-2OS cells were purchased from ATCC (Manassas, VA, United States). Primary osteoblasts were generated as reported previously ([Buondonno et al., 2016]). HMM and HMC were primary cells stabilized in culture as described ([Aldieri et al., 2004]). The use of primary cells was approved by Ethical Committee of the San Luigi Gonzaga Hospital, Orbassano, (protocol #126/2016). All subjects gave written informed consent in accordance with the Declaration of Helsinki. Cells were maintained in medium supplemented with 10% v/v fetal bovine serum, 1% v/v penicillin-streptomycin, 1% v/v L-glutamine. Morphological analysis was performed with a bright field microscope (Leica Microsystems, Wetzlar, Germany). At least 5 fields/experimental condition were examined.
(§2) The extracellular release of LDH, considered an index of cell damage and necrosis, was measured spectrophotometrically, as reported ([Riganti et al., 2013b]). The extracellular medium was centrifuged at 12,000 × g for 15 min to pellet cellular debris, the cells were washed with fresh medium, detached with 0.01% trypsin/EDTA, re-suspended in 0.2 ml of 82.3 mM triethanolamine phosphate-HCl (pH 7.6), and sonicated on ice with two 10-sec bursts. LDH activity was measured in the extracellular medium and in the cell lysate: 50 μl of extracellular medium or 5 μl of cell lysate were incubated at 37°C with 5 mM NADH. The reaction was started by adding 20 mM pyruvic acid and was monitored for 6 min, measuring absorbance at 340 nm using a Synergy HT Multi-Detection Microplate Reader (Bio-Tek Instruments, Winoosky, MT, United States). The reaction kinetics were linear throughout the time of measurement. Both intracellular and extracellular enzyme activities were expressed as μmol NADH oxidized/min/dish. The results were expressed as percentage of extracellular LDH versus total (intracellular plus extracellular) LDH. Cell viability was measured by the neutral red staining method, as previously reported ([Riganti et al., 2015b]). The absorbance of untreated cells was considered as 100% viability; the results were expressed as percentage of viable cells versus untreated cells. IC50 was calculated with the CompuSyn software^1.

In assay [2] the test system is MDA-MB-231 cells. It is filed as cell-based. The note with it: Homo sapiens, MDA-MB-231 breast cancer cells, CompuSyn.
Source text: as §1, §2

Assay [3] has as its system HMM (human malignant mesothelioma) cells. It is filed as cell-based. The note with it: HMM primary malignant mesothelioma cells, CompuSyn.
Source text: as §1, §2

Assay [4] concerns HMC (human mesothelial cells). It is filed as cell-based. The note with it: HMC primary mesothelial cells, CompuSyn.
Source text: as §1, §2

In assay [5] the test system is Primary osteoblasts. It is filed as cell-based. The note with it: Homo sapiens, Osteoblast, CompuSyn.
Source text: as §1, §2

In assay [6] the test system is HT29 cells. The assay is classed as cell-based. The note with it: Homo sapiens, HT-29, HT29 colon cancer cells, CompuSyn.
Source text: as §1, §2

Assay [7] relates to MCF10A cells. The assay is classed as cell-based. The note with it: Homo sapiens, MCF-10A, MCF10A normal breast epithelial cells, CompuSyn.
Source text: as §1, §2

In assay [8] the test system is U-2OS cells. It is filed as cell-based, Human. The note with it: U-2OS osteosarcoma cells, CompuSyn.

One may read the IC50 as the midpoint of a concentration-inhibition curve.

Consider `CC(=O)Oc1ccc(C[P+](c2ccccc2)(c2ccccc2)c2ccccc2)cc1.[Br-]` [Compound 1], for which the IC50 in assay [1] turned out to be 18.2 ± 1.29 µM; in assay [2], 8.32 ± 1.25 µM; in assay [3] it was 4.39 ± 0.35 µM; in assay [4], 7.37 ± 0.89 µM; in assay [5] it was 6.46 ± 0.83 µM; in assay [6], 4.45 ± 0.78 µM. Also, the IC50 in assay [7] worked out at 7.52 ± 0.43 µM.

`O=C(Oc1ccc(C[P+](c2ccccc2)(c2ccccc2)c2ccccc2)cc1C(F)(F)F)c1ccccc1.[Br-]` [Compound 2]: the IC50 in assay [1] is 7.89 ± 0.36 µM; in assay [2], 0.34 ± 0.11 µM; in assay [3], 0.82 ± 0.07 µM; in assay [4] it was 39.1 ± 4.34 µM; in assay [5], 3.41 ± 0.73 µM; in assay [6], 3.81 ± 0.47 µM. Also, the IC50 was 6.32 ± 0.41 µM in assay [7]; < 1 µM in assay [8] (Homo sapiens, U2OS); 0.63 ± 0.1 µM in assay [8].
